One data set has as its target T1, total HER2/ErbB2 (Homo sapiens, UniProt P04626).
T1 construct: endogenous in cells; host or cells: BT474 tumour xenografts in mice (per the earlier reading)
In words: In vivo receptor level, BT474 xenografts. Details: species or system mouse.

A further data set has as its target EGFR L858R (pCMV/Lx-1) (Homo sapiens, UniProt P00533, L858R). In words: EGFR phosphorylation ELISA in transfected Lx-1 cells. For orientation: ELISA stands for enzyme-linked immunosorbent assay.
Data set [1] is described as follows: Clinical safety data, 159 subjects with cancer. Conditions: human, in vivo.
Data set [2] concerns subjects with non-small-cell lung cancer. The data set can be described thus: Clinical Study XL-647-201 (Phase 2, NSCLC front-line). The note with it: Intermittent 5&9 schedule. It counts as in vivo, human. From the text:
Study XL-647-201: Subjects with non-small-cell lung cancer (NSCLC) (n=52) of adenomacarcinoma histology, Stage IIIB, with malignant pleural effusion, or Stage IV previously untreated for metastatic disease were enrolled. Subjects were selected for clinical characteristics predictive of response to EGFR inhibitors (Asian, female, and/or minimal and remote smoking history).

Another data set is described as follows: in vivo. Details: species or system mice, rats, dogs, and monkeys. The method, then:
The nonclinical Pharmacokinetics (PK) of XL-647 was studied in mice, rats, dogs, and monkeys. Animals were dosed either once or daily over several days, as described in Table 21 and 22 below. A summary of results can also be found in Tables 21 and 22 below. […] Mean tmax values were approximately 4 to 8 hours, and plasma terminal half-lives ranged from 9.41 to 20.9 hours.

The next data set deals with Glutamate, Kainate Site. The data set can be described thus: NovaScreen assay. It counts as binding.
In a further data set the target is T2, Neurokinin, NK3 (NKB) (Homo sapiens, UniProt P29371).
T2 construct: NovaScreen
In words: NovaScreen assay. It counts as binding. The note with it: read-out: Inhibition, 10 μM XL-647.

The target in another data set is Flt-4 (Homo sapiens, UniProt P35916). The data set can be described thus: AlphaScreen tyrosine kinase assay. The arrangement: residues D725-R1298 of human Flt-4, Proqinase; purchased Proqinase. Conditions: ATP at Km. It counts as biochemical. Here is the method: Dose-response experiments were done using 10 different inhibitor concentrations in 384-well microtiter plates. The ATP concentration used for each assay was equivalent to the Km for each kinase. IC50 values were calculated by nonlinear regression analysis using the four-variable equation: Y=min+(max−min)/[1+([I]/IC50)N], where Y is the observed signal, [I] is the inhibitor concentration, min is the background signal in the absence of enzyme (0% enzyme activity), max is the signal in the absence of inhibitor (100% enzyme activity), IC50 is the inhibitor concentration required at 50% enzyme inhibition, and N represents the empirical Hill slope as a measure of cooperativity.
An AlphaScreen tyrosine kinase assay was used to measure ErbB2 and Flt-4 activity. Donor beads coated with streptavidin and acceptor beads coated with PY100 anti-phosphotyrosine antibody (Perkin-Elmer) were used. Biotinylated poly(Glu,Tyr) 4:1 was used as the substrate. Substrate phosphorylation was measured by luminescence following donor-acceptor bead addition followed by complex formation. […] After 2 to 16 h of incubation at room temperature, plates were read using an AlphaQuest reader (Perkin-Elmer).
(In Alpha technology, singlet oxygen from a donor bead excites a nearby acceptor bead.)

A further data set addresses T3, Histamine, H2 (Homo sapiens, UniProt P25021).
T3 construct: NovaScreen
In words: NovaScreen assay. It counts as binding. The note with it: read-out: Inhibition, 10 μM XL-647.

Data set [3] deals with BT474 human tumor xenograft. In words: BT474 xenograft, tumor growth. The note with it: Mus musculus. It counts as in vivo. The method, then: The response of tumors to treatment was determined by comparing the mean tumor weight of the treatment group with the appropriate control group. Percentage inhibition of tumor growth was determined with the following formula: Percentage inhibition=100×[1−(Xf−Xo)/(Yf−Yo)], where Xf and Yf are the mean tumor weights of the treatment and control groups, respectively, on day f, and Xo and Yo are the mean tumor weights of treatment and control groups respectively, on day zero (staged tumor weights after grouping)

For data set [4], the target named is T4, Angiotensin II, AT1 (Human) (Homo sapiens, UniProt P30556).
T4 construct: NovaScreen
In words: NovaScreen assay. It counts as binding. Conditions: read-out: Inhibition, 10 μM XL-647.

A further data set addresses T5, Histamine, H1 (Homo sapiens, UniProt P35367).
T5 construct: NovaScreen
The data set can be described thus: NovaScreen assay. It counts as binding. Conditions: read-out: Inhibition, 10 μM XL-647.

Another data set addresses T6, Endothelin, ET-A (Human) (Homo sapiens, UniProt P25101).
T6 construct: NovaScreen
The data set can be described thus: NovaScreen assay. It counts as binding. Conditions: read-out: Inhibition, 10 μM XL-647.

For data set [5] the following is noted: human, in vivo.
Data set [6] has as its system Calcium Channel, Type L (Dihydropyridine Site). The data set can be described thus: NovaScreen assay. It counts as binding.

T6 sequence (P25101 21-427): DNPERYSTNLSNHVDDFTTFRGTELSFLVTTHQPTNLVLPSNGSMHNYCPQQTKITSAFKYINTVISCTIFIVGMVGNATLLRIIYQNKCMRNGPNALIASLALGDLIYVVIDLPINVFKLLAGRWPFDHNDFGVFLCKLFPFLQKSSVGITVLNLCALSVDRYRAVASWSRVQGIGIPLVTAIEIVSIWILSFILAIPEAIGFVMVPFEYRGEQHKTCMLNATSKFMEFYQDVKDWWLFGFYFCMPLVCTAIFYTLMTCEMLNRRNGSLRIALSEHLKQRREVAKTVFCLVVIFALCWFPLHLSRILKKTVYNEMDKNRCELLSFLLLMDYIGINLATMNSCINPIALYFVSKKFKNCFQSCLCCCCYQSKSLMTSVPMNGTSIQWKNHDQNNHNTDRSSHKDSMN
Chain of EGFR L858R (pCMV/Lx-1) (P00533 25-1210 L858R): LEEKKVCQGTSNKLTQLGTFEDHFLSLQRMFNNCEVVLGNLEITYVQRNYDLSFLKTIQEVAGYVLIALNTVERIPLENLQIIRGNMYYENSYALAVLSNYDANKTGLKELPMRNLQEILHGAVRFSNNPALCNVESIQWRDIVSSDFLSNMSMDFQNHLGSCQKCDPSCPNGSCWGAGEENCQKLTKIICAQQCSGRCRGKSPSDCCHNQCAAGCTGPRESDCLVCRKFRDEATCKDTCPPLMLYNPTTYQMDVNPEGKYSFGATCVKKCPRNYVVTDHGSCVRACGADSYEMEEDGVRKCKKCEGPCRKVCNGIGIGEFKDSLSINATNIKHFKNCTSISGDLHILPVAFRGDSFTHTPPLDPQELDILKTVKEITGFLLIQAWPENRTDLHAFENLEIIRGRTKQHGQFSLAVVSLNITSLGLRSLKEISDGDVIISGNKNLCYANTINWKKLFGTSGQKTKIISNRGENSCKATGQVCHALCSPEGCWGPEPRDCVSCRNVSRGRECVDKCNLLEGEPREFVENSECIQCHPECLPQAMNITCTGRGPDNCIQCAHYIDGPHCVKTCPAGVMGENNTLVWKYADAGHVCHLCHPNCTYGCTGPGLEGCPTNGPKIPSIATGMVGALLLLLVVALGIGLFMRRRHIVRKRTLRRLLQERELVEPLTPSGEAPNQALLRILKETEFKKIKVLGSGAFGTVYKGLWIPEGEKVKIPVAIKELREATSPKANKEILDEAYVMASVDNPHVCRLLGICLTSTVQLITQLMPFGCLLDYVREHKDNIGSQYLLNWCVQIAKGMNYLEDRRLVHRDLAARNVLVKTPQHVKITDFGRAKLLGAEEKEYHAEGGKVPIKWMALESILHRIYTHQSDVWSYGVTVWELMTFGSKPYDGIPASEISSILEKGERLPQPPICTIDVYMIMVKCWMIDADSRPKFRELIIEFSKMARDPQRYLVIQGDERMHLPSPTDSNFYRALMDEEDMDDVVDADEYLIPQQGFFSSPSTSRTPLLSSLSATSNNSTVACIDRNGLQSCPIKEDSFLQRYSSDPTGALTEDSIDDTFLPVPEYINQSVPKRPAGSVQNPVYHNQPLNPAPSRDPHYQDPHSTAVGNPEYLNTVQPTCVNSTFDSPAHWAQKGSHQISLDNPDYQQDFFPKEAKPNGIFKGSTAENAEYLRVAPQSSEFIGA
T2 sequence (P29371 whole entry): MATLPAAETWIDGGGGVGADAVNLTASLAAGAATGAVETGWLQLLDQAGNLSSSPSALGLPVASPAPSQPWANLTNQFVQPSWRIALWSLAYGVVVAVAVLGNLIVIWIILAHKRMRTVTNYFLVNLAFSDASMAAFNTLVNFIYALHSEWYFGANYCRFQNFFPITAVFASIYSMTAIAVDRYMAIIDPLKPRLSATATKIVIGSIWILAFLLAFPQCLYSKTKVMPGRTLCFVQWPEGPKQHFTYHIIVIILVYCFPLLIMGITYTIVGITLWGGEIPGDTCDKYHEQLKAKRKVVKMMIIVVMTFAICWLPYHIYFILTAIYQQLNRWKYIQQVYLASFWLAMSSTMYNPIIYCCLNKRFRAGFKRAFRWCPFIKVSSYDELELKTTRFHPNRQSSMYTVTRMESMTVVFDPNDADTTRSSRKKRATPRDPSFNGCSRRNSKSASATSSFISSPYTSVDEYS
T3 sequence (P25021 whole entry): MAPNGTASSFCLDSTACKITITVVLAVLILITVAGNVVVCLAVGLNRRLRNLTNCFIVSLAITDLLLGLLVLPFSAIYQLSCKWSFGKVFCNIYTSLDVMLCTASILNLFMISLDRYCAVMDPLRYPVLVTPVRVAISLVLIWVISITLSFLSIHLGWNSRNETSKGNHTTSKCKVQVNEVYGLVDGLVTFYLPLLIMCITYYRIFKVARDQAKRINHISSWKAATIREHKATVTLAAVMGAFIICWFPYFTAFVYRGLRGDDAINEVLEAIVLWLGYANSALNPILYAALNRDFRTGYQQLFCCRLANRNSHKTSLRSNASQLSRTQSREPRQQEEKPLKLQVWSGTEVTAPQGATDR
Chain of Flt-4 (P35916 725-1298 isoform P35916-1): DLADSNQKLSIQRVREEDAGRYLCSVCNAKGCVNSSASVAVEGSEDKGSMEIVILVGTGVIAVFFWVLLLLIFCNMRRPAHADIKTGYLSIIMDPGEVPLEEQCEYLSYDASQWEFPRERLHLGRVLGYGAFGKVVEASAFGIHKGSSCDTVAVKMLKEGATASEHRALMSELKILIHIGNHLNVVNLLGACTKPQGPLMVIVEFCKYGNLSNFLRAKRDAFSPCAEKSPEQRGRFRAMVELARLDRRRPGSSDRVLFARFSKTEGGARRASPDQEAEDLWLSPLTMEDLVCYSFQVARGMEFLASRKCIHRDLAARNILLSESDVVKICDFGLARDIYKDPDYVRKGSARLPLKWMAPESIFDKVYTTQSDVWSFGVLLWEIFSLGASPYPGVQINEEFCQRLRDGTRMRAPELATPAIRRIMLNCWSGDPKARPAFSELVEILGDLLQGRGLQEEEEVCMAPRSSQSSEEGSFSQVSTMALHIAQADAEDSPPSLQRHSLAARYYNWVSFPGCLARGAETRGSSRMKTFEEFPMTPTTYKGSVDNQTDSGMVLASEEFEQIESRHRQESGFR
T1 sequence (P04626 23-1255): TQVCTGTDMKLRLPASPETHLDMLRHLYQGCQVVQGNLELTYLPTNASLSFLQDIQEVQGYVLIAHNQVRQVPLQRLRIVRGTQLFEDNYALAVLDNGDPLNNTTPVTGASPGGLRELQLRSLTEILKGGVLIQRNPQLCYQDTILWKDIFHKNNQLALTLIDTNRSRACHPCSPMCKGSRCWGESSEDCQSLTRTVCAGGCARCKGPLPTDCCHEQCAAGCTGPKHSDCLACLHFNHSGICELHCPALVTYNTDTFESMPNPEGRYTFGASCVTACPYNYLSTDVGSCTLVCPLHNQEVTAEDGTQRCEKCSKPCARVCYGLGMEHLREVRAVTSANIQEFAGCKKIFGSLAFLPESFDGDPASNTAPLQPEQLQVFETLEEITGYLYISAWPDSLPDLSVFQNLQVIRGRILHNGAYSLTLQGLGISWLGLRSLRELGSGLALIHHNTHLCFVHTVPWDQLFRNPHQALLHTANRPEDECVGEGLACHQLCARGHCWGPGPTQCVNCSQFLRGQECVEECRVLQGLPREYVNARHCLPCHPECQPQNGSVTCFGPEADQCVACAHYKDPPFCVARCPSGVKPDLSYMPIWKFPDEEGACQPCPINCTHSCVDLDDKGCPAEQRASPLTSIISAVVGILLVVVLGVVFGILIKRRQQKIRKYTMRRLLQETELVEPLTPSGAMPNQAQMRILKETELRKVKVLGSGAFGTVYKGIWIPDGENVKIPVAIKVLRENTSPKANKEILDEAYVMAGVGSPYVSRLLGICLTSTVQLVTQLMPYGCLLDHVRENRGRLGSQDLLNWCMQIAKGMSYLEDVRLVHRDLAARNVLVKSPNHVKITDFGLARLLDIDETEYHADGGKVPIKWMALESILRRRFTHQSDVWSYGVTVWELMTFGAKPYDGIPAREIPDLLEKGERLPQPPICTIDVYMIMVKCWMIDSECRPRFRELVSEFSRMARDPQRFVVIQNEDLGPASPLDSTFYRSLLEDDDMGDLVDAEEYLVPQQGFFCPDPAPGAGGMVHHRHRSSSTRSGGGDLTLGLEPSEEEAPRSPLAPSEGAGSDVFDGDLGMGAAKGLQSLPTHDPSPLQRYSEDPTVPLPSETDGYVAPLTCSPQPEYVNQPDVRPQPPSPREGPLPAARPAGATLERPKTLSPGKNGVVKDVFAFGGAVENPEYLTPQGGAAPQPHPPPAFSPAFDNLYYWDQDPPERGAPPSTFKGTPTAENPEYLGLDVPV
T4 sequence (P30556 whole entry): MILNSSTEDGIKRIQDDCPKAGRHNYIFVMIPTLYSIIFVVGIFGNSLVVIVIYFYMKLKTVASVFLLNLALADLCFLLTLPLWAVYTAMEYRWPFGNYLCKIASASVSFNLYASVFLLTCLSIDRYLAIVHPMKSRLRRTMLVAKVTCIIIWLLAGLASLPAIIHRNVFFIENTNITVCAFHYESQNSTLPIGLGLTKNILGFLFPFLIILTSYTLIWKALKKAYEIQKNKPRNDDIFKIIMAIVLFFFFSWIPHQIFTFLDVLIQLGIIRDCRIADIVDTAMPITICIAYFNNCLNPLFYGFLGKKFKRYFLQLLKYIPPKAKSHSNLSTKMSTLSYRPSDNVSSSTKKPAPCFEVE
Excerpt for EGFR L858R (pCMV/Lx-1): Lx-1 cells were used because they lack background EGFR activity. A clone corresponding to the longest EGFR isoform (Genbank accession no. NM_005228.3/NP_005219.2 #21-176, Upstate Biotechnology) was used as a template to produce two mutant EGFR genes (coding for L858R and L861Q) by site-directed mutagenesis. The WT and the two sequence-verified mutants were transferred to a COOH-terminal Flag-tagged retroviral cytomegalovirus promoter-driven mammalian expression vector. The two Tet-On expression vectors, EGFR WT (Tet-On) and EGFRvIII (Tet-On), which were COOH-terminally Flag tagged, were generously provided by Dr. Abhijit Guha (University of Toronto, Toronto, Ontario, Canada).
Transient transfections of Lx-1 cells were done using Lipofectamine 2000 (Invitrogen) according to the manufacturer's protocol. For transfections of the WT, L858R, and L861Q constructs, 1 μg plasmid DNA was used for each transfection (each well of a 12-well plate). […]
For the EGFR phosphorylation ELISA, Reacti-Bind streptavidin-coated plates (Pierce) were coated with 2 μg/mL biotin-conjugated anti-Flag antibody (Sigma). […] Horseradish peroxidase activity was determined by reading the plates in a Victor2 plate reader following addition of the ELISA Femto substrate.

In general, IC50 refers to the concentration that inhibits the measured activity by half. The bioavailability is the share of a dose that reaches the circulation, judged against a reference dose that is usually intravenous. Broadly, the Tmax is the time from dosing to the highest level. As a reminder, the half-life is the time in which the quantity being followed falls by half. As a reminder, the inhibition is the drop in the measured response relative to a control, in per cent. In general, ED50 refers to the dose that gives a 50% effect, or the effect in half of the subjects. As for `COc1cc2c(Nc3ccc(Cl)c(Cl)c3F)ncnc2cc1OC[C@@H]1C[C@@H]2CN(C)C[C@@H]2C1` [XL-647, N-(3,4-dichloro-2-fluorophenyl)-7-({[(3aR,5r,6aS)-2-methyloctahydrocyclopenta[c]pyrrol-5-yl]methyl}oxy)-6-(methyloxy)quinazolin-4-amine], the “Single Dose Duration of Action (100 mg/kg, >50% inhibition)” value on total HER2/ErbB2 is recorded as >96 h. For the same molecule, the IC50 turned out to be 5 nM at EGFR L858R (pCMV/Lx-1) and 8.7 ± 0.6 nM at Flt-4. Also, the “deaths attributed to study drug” value in [1] was “no deaths attributed to study drug”. Further, the “clinical benefit rate (PR+SD)” value in data set [2] (38 evaluable) is on record as 71%. For the same molecule, the “subjects with PR” value in data set [2] (of 38 evaluable) was found to be 10 subjects. In addition, in data set [2] (of 38 evaluable), the “subjects with SD lasting 3 months or more” value is reported as 17 subjects. In the data set “in vivo”, the accumulation in plasma was < 2 fold. In “in vivo”, the “dose proportionality of AUC, in words” value is given as “approximately dose proportionally over lower dose ranges”. This molecule also displayed a bioavailability in “in vivo” (dog, po) of 63 to 74%. The Tmax in the data set “in vivo” (mouse, rat, dog, monkey) lay within 4 to 8 h. The molecule also showed a half-life in the data set “in vivo” (mouse, rat, dog, monkey) of 9.41 to 20.9 h. Besides, the volumes of distribution in the data set “in vivo” (mouse, rat, dog, monkey, iv) was > 18 L/kg. Besides, the “oral bioavailability, in words” value in “in vivo” (po) is “orally bioavailable in mice, rats and dogs”. For the same molecule, the “Inhibition, 10 μM XL-647” value in the data set with Glutamate, Kainate Site was 0.89%; in data set [6], 46.77%. The inhibition at 10 µM on Neurokinin, NK3 (NKB) is 20%; on Histamine, H2 it was 45.7%; in data set [4] it was 6.85%; on Histamine, H1 it was 59.8%; at Endothelin, ET-A (Human) it was -11.1%. Also, the 50% effective dose (ED50) in [3] (BT-474, qd × 14) was found to be 9.8 mg/kg; in data set [3] (BT-474, qd × 28), 21.9 mg/kg. The “most common adverse events (frequency ≧10%)” value in data set [5] was “diarrhea, rash, fatigue, nausea, dry skin, cough, dyspnoea, anorexia, electrocardiogram QT prolongation (machine-read), vomiting, constipation, dysgeusia, upper respiratory tract infection, abdominal pain, back pain, pyrexia, dizziness, and dry mouth”.
